Experimental data from US11261230B2, “Synthetic somatostatin receptor ligands” (TEL HASHOMER MEDICAL RESEARCH INFRASTRUCTURE AND SERVICES …, priority 2014, dated 2022).
*1 amine or outer side, *2 acyl side, *3 side chain or, on linkers, in order; H or OH if unused. Where a SMILES comes first, the peptide text is derived from it. Bridges are numbered along the chain shown (N, C = ends). [ ]: non-standard residue; d: D form. The star is where a group is joined. FITC = O=C1OC2(c3ccc(O)cc3Oc3cc(O)ccc32)c2ccc(NC(=S)*)cc21; N(2-mercaptoethyl)Gly = O=C(CN(CCS[*:3])[*:1])[*:2]; Aib = CC(C)(N)C(=O)O; GABA = NCCCC(=O)O

Tests used:
PANC-1 tumors = conditions: mouse, in vivo
Experimental: Five different pharmaceutical compositions were prepared, each by dissolving 1 mg of a different Somatostatin receptor ligand in 1 liter PBS.
Solid human-derived tumors were induced in 15 nude mice by subcutaneous injection of a suspension containing ˜5□10^5 human cancer cells (PANC-1) into the flank area of the mice.
2-3 weeks after the injection of the cancer cells, it was observed that the mice developed solid tumors with diameters of approximately 5-10 mm.
0.3 ml of each one of the five pharmaceutical compositions were systemically administered to three of the fifteen xenograft mice by injection into the tail vein using a 30 G needle.
The fifteen mice were sacrificed and from the bodies tumors, pancreas, spleen, kidney and liver were harvested.
The fluorescence of the harvested tissue was determined using the Maestro™ in vivo fluorescence imaging system (Cambridge Research & Instrumentation, Inc., Woburn, Mass., USA).

human SSTR5 = biological target: T1, human SSTR5 (Homo sapiens, UniProt P35346); experiment: Binding to transfected HEK cells expressing a single SSTRx subtype, FACS and fluorescence microscopy
T1 construct: expressed in transfected cells; host or cells: HEK-293, transient transfection, pcDNA 3.1
Experimental: (§1) The affinity of compounds 1-16 to each of the five SSTRx was tested using an in vitro model of transfected cell lines (HEK—human embryonic kidney), each expressing a single human SSTRx subtype. Biological activity assessment of the compounds to define a specific affinity to each subtype was performed by FACS and fluorescence imaging methods.
(§2) Human SSTRx were expressed in the cells by transient transfection. Each SSTR was expressed separately, creating five different cell lines using human gene transcript.
(§3) The transfection process is illustrated in FIG. 1. The transient transfection process was carried out before each experiment. Briefly, HEK cells were cultured in standard cell growth conditions. For testing, the cells were transferred into 96-well plates. The tested compounds were dissolved in DMSO and then diluted in a buffer solution to a final DMSO concentration of 5% as a composition according to the teachings herein. Various amounts of the thus-prepared compositions were added to the cells in medium in the 96-well plates and allowed to incubate for between 1 and 24 hours. Binding was determined using fluorescent microscopy and FACS.
(§4) Qualitative assessment of binding efficiency was done by visual inspection and digital photography using an inverted fluorescent microscope. Quantitative assessment was done using FACS.
(§5) HEK-293 cells (human embryonic kidney) were grown in Dulbecco's modified Eagle's medium (DMEM) supplemented with 4 mM glutamine, 10% fetal bovine serum (FBS) and 100 units/ml penicillin/streptomycin at 37° C./5% carbon dioxide. One day prior to transfection, the cells were trypsinized, counted and plated at a density of 3×10^5 per 35 mm diameter dish. Until 70% confluency, cells were transiently transfected with the pcDNA 3.1 vector bearing the coding region for the human SSTR human somatostatin receptor subtypes SSTR1-SSTR5. Transfections were carried out with JetPei transfection reagent (Polyplus-transfection, NY, USA) according to the manufacturer's recommendation. Briefly, 2 micrograms of plasmid DNA and 6 microliter of JetPei transfection reagent were used for each transfection. Each of the components were resuspended in 100 microliter of 150 mM NaCl, mixed and incubated for 25 minutes at room temperature and after incubation added to cells.
(§6) Cells were then seeded in a 96-well flat-bottom microplate (Costar, Corning, N.Y.) at a concentration of 5×10^4 cells/well. Twelve hours later, the supernatant was removed and replaced with fresh DMEM containing various (in the nM range) concentrations of tested compounds 1-16. The cells were incubated for additional time intervals ranging from 0.5-24 hr. At the end of the incubation period, supernatant was discarded and the cells were washed twice with cold PBS. The plates were examined using IX81 inverted microscope (Olympus, Japan) equipped with […] digital camera. Additionally, a FACS assay was used for quantitative analysis.
(§7) Quantitative assessment of binding affinity of Compounds 1-16 was performed by FACS in the transfected HEK cell model.
(§8) Quantitatively, specific binding affinity was assessed as the percentage of double stained [(GR=green and red indicating transfection)/(R is total red) less (G is green indicating unspecific binding)]: specific binding affinity=[GR/R−G]

SSTR1-SSTR5 = experiment: Binding specificity across the five SSTRx transfected HEK cell lines; parameters: species or system human; conditions: conclusions drawn from Table 2-A
Experimental: Biological activity assessment of the compounds to define a specific affinity to each subtype was performed by FACS and fluorescence imaging methods. Human SSTRx were expressed in the cells by transient transfection. Each SSTR was expressed separately, creating five different cell lines using human gene transcript. The transfection process is illustrated in FIG. 1. The transient transfection process was carried out before each experiment. Briefly, HEK cells were cultured in standard cell growth conditions. For testing, the cells were transferred into 96-well plates. The tested compounds were dissolved in DMSO and then diluted in a buffer solution to a final DMSO concentration of 5% as a composition according to the teachings herein. Various amounts of the thus-prepared compositions were added to the cells in medium in the 96-well plates and allowed to incubate for between 1 and 24 hours. Binding was determined using fluorescent microscopy and FACS. Cells were then seeded in a 96-well flat-bottom microplate (Costar, Corning, N.Y.) at a concentration of 5×10^4 cells/well. […] Additionally, a FACS assay was used for quantitative analysis. […] Quantitatively, specific binding affinity was assessed as the percentage of double stained [(GR=green and red indicating transfection)/(R is total red) less (G is green indicating unspecific binding)]: specific binding affinity=[GR/R−G]

human SSTR2 = biological target: T2, human SSTR2 (Homo sapiens, UniProt P30874); experiment: Binding to transfected HEK cells expressing a single SSTRx subtype, FACS
T2 construct: expressed in transfected cells; host or cells: HEK-293, transient transfection, pcDNA 3.1
Experimental: as §1, §2, §3, §4, §5, §6, §7, §8

human SSTR3 = biological target: T3, human SSTR3 (Homo sapiens, UniProt P32745); experiment: as above
T3 construct: expressed in transfected cells; host or cells: HEK-293, transient transfection, pcDNA 3.1
Experimental: as §1, §2, §3, §4, §5, §6, §7, §8

human SSTR1 = biological target: T4, human SSTR1 (Homo sapiens, UniProt P30872); experiment: as above
T4 construct: expressed in transfected cells; host or cells: HEK-293, transient transfection, pcDNA 3.1
Experimental: as §1, §2, §3, §4, §5, §6, §7, §8

human SSTR4 = biological target: T5, human SSTR4 (Homo sapiens, UniProt P31391); experiment: as above
T5 construct: expressed in transfected cells; host or cells: HEK-293, transient transfection, pcDNA 3.1
Experimental: as §1, §2, §3, §4, §5, §6, §7, §8

[1] = FACS, transfected HEK, specific binding affinity = percentage double stained [GR/R−G], 0 = no binding detected
[2] = Table 2 normalized according to the highest binding affinity of that compound
[3] = Table 2 normalized to Compound 1 (=100)

T1 sequence (P35346 whole entry): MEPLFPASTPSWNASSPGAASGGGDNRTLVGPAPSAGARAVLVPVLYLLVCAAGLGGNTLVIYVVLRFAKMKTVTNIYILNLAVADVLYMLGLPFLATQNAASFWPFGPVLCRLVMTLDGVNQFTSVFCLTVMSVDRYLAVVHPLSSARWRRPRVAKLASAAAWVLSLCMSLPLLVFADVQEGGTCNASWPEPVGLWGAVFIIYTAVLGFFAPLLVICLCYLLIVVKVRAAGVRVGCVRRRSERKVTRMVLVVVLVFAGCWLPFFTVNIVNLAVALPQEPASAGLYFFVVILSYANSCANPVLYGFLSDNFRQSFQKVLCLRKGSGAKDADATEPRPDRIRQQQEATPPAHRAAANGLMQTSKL
T3 sequence (P32745 whole entry): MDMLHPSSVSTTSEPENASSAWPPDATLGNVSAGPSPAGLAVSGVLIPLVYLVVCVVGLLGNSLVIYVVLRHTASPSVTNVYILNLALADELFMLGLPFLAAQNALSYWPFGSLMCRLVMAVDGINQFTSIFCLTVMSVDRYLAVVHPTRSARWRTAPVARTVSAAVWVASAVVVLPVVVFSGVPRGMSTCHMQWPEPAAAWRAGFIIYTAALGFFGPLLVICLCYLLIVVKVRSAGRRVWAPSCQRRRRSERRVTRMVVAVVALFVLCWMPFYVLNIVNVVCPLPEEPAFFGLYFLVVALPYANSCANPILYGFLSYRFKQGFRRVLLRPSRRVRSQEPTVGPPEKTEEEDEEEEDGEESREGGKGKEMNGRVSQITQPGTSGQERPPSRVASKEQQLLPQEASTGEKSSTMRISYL
T4 sequence (P30872 whole entry): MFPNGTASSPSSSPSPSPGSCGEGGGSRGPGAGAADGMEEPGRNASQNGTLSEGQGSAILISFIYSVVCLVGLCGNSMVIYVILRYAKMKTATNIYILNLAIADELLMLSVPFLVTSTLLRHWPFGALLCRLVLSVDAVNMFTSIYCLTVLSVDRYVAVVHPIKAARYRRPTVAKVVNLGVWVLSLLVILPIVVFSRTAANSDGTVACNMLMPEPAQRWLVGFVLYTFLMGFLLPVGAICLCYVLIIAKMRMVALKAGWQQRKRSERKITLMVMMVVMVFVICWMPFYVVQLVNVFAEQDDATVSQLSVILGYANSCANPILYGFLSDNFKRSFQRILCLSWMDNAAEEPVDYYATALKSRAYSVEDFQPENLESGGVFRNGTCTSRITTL
T2 sequence (P30874 whole entry): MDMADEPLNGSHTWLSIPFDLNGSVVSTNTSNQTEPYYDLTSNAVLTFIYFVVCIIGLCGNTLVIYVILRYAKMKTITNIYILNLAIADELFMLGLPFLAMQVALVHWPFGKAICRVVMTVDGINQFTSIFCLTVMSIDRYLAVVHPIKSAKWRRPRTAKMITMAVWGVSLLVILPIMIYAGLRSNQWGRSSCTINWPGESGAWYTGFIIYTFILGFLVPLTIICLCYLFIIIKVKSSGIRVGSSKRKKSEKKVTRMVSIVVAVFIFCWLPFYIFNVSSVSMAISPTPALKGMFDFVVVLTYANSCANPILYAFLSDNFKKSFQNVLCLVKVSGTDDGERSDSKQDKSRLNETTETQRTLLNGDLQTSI
T5 sequence (P31391 whole entry): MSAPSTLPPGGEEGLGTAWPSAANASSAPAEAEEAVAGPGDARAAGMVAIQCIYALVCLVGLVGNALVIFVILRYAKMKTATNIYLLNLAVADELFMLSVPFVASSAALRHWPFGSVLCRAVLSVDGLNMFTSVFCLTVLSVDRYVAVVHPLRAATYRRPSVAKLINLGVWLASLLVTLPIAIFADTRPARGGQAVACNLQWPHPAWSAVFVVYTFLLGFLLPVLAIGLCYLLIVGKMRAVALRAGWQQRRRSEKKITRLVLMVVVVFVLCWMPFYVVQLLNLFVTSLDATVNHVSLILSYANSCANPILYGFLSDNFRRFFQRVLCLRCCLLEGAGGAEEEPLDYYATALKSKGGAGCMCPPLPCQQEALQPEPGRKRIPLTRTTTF

`C[C@@H](O)[C@@H]1NC(=O)[C@H](CCCCN)NC(=O)[C@@H](Cc2c[nH]c3ccccc23)NC(=O)[C@H](Cc2ccccc2)NC(=O)[C@H](CCCNC(=N)N)NC(=O)[C@@H](NC(=O)CCCNC(=S)Nc2ccc3c(c2)C(=O)OC32c3ccc(O)cc3Oc3cc(O)ccc32)CSSCCN(CC(N)=O)C(=O)[C@H](Cc2ccccc2)NC1=O` [Compound 9, FITC-GABA-Cys-Arg-Phe-D-Trp-Lys-Thr-Phe-GlyS2] ({FITC-GABA}-CRF[dW]KTF[N(2-mercaptoethyl)Gly]-NH2; disulfide 1-8) was tested, and the “Intensity in healthy tissue (in words)” value (PANC-1 tumors) was “undetectable in the healthy tissues”.

With `C[C@@H](O)[C@@H]1NC(=O)C(C)(C)NC(=O)[C@@H](Cc2c[nH]c3ccccc23)NC(=O)[C@H](Cc2c[nH]c3ccccc23)NC(=O)[C@H](Cc2ccccc2)NC(=O)[C@@H](NC(=O)[C@@H](Cc2ccccc2)NC(=O)CCCNC(=S)Nc2ccc3c(c2)C(=O)OC32c3ccc(O)cc3Oc3cc(O)ccc32)CSSCCN(CC(N)=O)C(=O)[C@H](Cc2ccccc2)NC1=O` [Compound 13, FITC-GABA-D-Phe-Cys-Phe-Trp-D-Trp-Aib-Thr-Phe-GlyS2] ({FITC-GABA}-[dF]CFW[dW][Aib]TF[N(2-mercaptoethyl)Gly]-NH2; disulfide 2-9) the “Relative binding affinity SSTR5” value (human SSTR5; [1]) was 9, the “Adjusted binding affinity SSTR5” value (human SSTR5; [2]) was 1 and the “Binding affinity to SSTR5 relative to Compound 1” value (human SSTR5; [3]) was 32. The “Binding specificity among the five SSTRx (in words)” value (SSTR1-SSTR5) was “to SSTR3 and SSTR5 and not SSTR1, SSTR2 and SSTR4”, the “Relative binding affinity SSTR2” value (human SSTR2; [1]) was 0 and the “Adjusted binding affinity SSTR2” value (human SSTR2; [2]) was 0. For the same molecule, the “Binding affinity to SSTR2 relative to Compound 1” value (human SSTR2; [3]) was 0, the “Relative binding affinity SSTR3” value (human SSTR3; [1]) was 6 and the “Adjusted binding affinity SSTR3” value (human SSTR3; [2]) was 0.67. The “Binding affinity to SSTR3 relative to Compound 1” value (human SSTR3; [3]) was 35, the “Relative binding affinity SSTR1” value (human SSTR1; [1]) was 1 and the “Adjusted binding affinity SSTR1” value (human SSTR1; [2]) was 0.11. The “Binding affinity to SSTR1 relative to Compound 1” value (human SSTR1; [3]) was 33, the “Relative binding affinity SSTR4” value (human SSTR4; [1]) was 4 and the “Adjusted binding affinity SSTR4” value (human SSTR4; [2]) was 0.44. For the same molecule, the “Binding affinity to SSTR4 relative to Compound 1” value (human SSTR4; [3]) was 18.
